Source: PubChem BioAssay AID493136 (Sanford-Burnham Center for Chemical Genomics, 2011)
Calls of active or inactive are those of the source. No rule for the calls is given here.

Each compound was assayed against Alkaline phosphatase, germ cell type (Homo sapiens) (UniProt P10696) (assay: inhibitors of germ cell alkaline phosphatase – biochemical, human placental-like ALPPL2 isozyme, selectivity assay for mouse IAP inhibitor project, SAR follow-up (AID 493136)). Details: purified placental-like alkaline phosphatase, phosphatase activity.
Sequence of Alkaline phosphatase, germ cell type (Homo sapiens) (P10696 whole entry, looked up): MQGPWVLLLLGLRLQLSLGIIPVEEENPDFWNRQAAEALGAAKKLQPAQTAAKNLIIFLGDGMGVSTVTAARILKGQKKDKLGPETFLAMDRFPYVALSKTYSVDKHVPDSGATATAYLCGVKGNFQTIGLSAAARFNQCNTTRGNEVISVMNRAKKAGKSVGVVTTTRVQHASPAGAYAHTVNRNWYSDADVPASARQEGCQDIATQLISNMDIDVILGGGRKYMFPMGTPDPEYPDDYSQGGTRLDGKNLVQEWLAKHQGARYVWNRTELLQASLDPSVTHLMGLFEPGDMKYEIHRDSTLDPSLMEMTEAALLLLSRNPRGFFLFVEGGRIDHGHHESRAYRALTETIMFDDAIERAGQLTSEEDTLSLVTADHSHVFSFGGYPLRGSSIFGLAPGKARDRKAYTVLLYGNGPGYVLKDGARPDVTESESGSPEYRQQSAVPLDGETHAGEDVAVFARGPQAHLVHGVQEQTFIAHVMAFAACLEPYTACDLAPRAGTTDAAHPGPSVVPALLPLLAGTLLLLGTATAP

IC50	Structure (SMILES)
> 100 µM (inactive)	COc1ccc(C(=O)CSc2n[nH]c(-c3ccccc3)n2)cc1OC
> 100 µM (inactive)	CN(C)S(=O)(=O)c1cccc(NC(=S)NCCC(c2ccccc2)c2ccccc2)c1
> 100 µM (inactive)	Cc1cc(C)cc(NC(=S)NCCC(c2ccccc2)c2ccccc2)c1
> 100 µM (inactive)	COCc1ccc(CN2CCC(C(=O)Nc3cccc(-c4cccc(Cl)c4)c3)CC2)o1
> 100 µM (inactive)	S=C(NCCC(c1ccccc1)c1ccccc1)Nc1ccc(Nc2ccccc2)cc1
> 100 µM (inactive)	O=C(CN1C(=O)/C(=C\c2ccco2)SC1=S)Nc1ccccc1C(=O)O
> 100 µM (inactive)	CCCn1ncc(CN2CCC(C(=O)Nc3cccc(-c4cccc(F)c4)c3)CC2)c1C
> 100 µM (inactive)	COc1cccc(-c2cccc(NC(=O)C3CCN(Cc4ccc(C)o4)CC3)c2)c1
> 100 µM (inactive)	COc1cc([N+](=O)[O-])ccc1NC(=S)NCCC(c1ccccc1)c1ccccc1
> 100 µM (inactive)	Oc1ccc(-c2csc(Nc3cccc4ccccc34)n2)cc1O
> 100 µM (inactive)	Cc1cc(NC(=O)CCNS(=O)(=O)c2ccc3[nH]c(=O)oc3c2)ccc1Br
> 100 µM (inactive)	O=[N+]([O-])c1ccc(NC(=S)NCCC(c2ccccc2)c2ccccc2)cc1
> 100 µM (inactive)	CCn1nc(C)c(CN2CCC(C(=O)Nc3cccc(-c4cccc(Cl)c4)c3)CC2)c1C
> 100 µM (inactive)	CCOC(=O)c1ccc(NC(=S)NCCC(c2ccccc2)c2ccccc2)cc1
> 100 µM (inactive)	O=C(Nc1cccc(-c2cccc(F)c2)c1)C1CCN(Cc2ccc(CO)o2)CC1
> 100 µM (inactive)	CCn1cc(CN2CCC(C(=O)Nc3cccc(-c4cccc(F)c4)c3)CC2)cn1
> 100 µM (inactive)	CC(C)n1cc(CN2CCC(C(=O)Nc3cccc(-c4cccc(F)c4)c3)CC2)cn1
> 100 µM (inactive)	CCN1CCN(S(=O)(=O)c2ccc3[nH]c(=O)oc3c2)CC1
> 100 µM (inactive)	O=C(Nc1cccc(-c2cccc(Cl)c2)c1)C1CCN(C2CCC2)CC1
> 100 µM (inactive)	CCn1cc(CN2CCC(C(=O)Nc3cccc(-c4cccc(OC)c4)c3)CC2)cn1
> 100 µM (inactive)	Cc1ccc(NC(=S)NCCC(c2ccccc2)c2ccccc2)cc1C
> 100 µM (inactive)	CN1CCC(=NNC(=O)c2cc(O)c(O)c(O)c2)CC1
> 100 µM (inactive)	CC1(c2ccccc2)CC(C)(C)N(C(=S)Nc2ccccc2)c2ccccc21 (stereo not drawn)

IC50	Structure (SMILES)
> 100 µM (inactive)	Cc1ccc(C)c(NC(=S)NCCC(c2ccccc2)c2ccccc2)c1
> 100 µM (inactive)	COc1ccc(NC(=S)NCCC(c2ccccc2)c2ccccc2)cc1
> 100 µM (inactive)	COc1cc(NC(=S)NCCC(c2ccccc2)c2ccccc2)cc(OC)c1
> 100 µM (inactive)	Cn1cc(CN2CCC(C(=O)Nc3cccc(-c4cccc(Cl)c4)c3)CC2)cn1
> 100 µM (inactive)	S=C(NCCC(c1ccccc1)c1ccccc1)Nc1ccc(Cl)c(Cl)c1
> 100 µM (inactive)	Cc1cc(Cl)ccc1NC(=S)NCCC(c1ccccc1)c1ccccc1
> 100 µM (inactive)	Cc1cc(=O)oc2cc(NC(=S)NCCC(c3ccccc3)c3ccccc3)ccc12
> 100 µM (inactive)	Cn1cc(CN2CCC(C(=O)Nc3cccc(-c4cccc(F)c4)c3)CC2)cn1
> 100 µM (inactive)	Cc1ccc(CN2CCC(C(=O)Nc3cccc(-c4cccc(F)c4)c3)CC2)o1
> 100 µM (inactive)	O=C(Nc1cccc(-c2cccc(Cl)c2)c1)C1CCN(Cc2ccc(CO)o2)CC1
> 100 µM (inactive)	CCn1nc(C)c(CN2CCC(C(=O)Nc3cccc(-c4cccc(F)c4)c3)CC2)c1C
> 100 µM (inactive)	CCn1cc(CN2CCC(C(=O)Nc3cccc(-c4cccc(Cl)c4)c3)CC2)cn1
> 100 µM (inactive)	Fc1ccccc1NC(=S)NCCC(c1ccccc1)c1ccccc1
> 100 µM (inactive)	CC(C)N1CCC(=NNC(=O)c2cc(O)c(O)c(O)c2)CC1
> 100 µM (inactive)	O=S(=O)(Nc1ncccn1)c1ccc(NC(=S)NCCC(c2ccccc2)c2ccccc2)cc1
> 100 µM (inactive)	Cc1ccc(NC(=S)NCCC(c2ccccc2)c2ccccc2)cc1
> 100 µM (inactive)	COc1ccc(Cl)cc1NC(=S)NCCC(c1ccccc1)c1ccccc1
> 100 µM (inactive)	O=C(CN1C(=O)/C(=C/c2ccco2)SC1=S)Nc1ccc(C(=O)O)cc1
> 100 µM (inactive)	S=C(NCCC(c1ccccc1)c1ccccc1)Nc1cccc(Cl)c1
> 100 µM (inactive)	FC(F)(F)c1cccc(NC(=S)NCCC(c2ccccc2)c2ccccc2)c1
> 100 µM (inactive)	C=CCn1cc(CN2CCC(C(=O)Nc3cccc(-c4cccc(F)c4)c3)CC2)c(C)n1
> 100 µM (inactive)	Cc1c(Cl)cccc1Nc1nc(-c2ccc(O)c(O)c2)cs1
> 100 µM (inactive)	Cc1c(CN2CCC(C(=O)Nc3cccc(-c4cccc(Cl)c4)c3)CC2)cnn1C

IC50	Structure (SMILES)
> 100 µM (inactive)	CCn1ncc(CN2CCC(C(=O)Nc3cccc(-c4cccc(F)c4)c3)CC2)c1C
> 100 µM (inactive)	CCn1cc(CN2CCC(C(=O)Nc3cccc(-c4cccc(OC)c4)c3)CC2)c(C)n1
> 100 µM (inactive)	COc1cccc(NC(=S)NCCC(c2ccccc2)c2ccccc2)c1
> 100 µM (inactive)	COC(=O)c1cc(NC(=S)NCCC(c2ccccc2)c2ccccc2)cc(C(=O)OC)c1
> 100 µM (inactive)	Cc1cccc(NC(=S)NCCC(c2ccccc2)c2ccccc2)c1C
> 100 µM (inactive)	Cc1nn(C(C)C)c(C)c1CN1CCC(C(=O)Nc2cccc(-c3cccc(F)c3)c2)CC1
> 100 µM (inactive)	Cc1ccc(NC(=O)CCNS(=O)(=O)c2ccc3[nH]c(=O)oc3c2)cc1C
> 100 µM (inactive)	COc1ccc(Cl)cc1Nc1nc(-c2ccc(O)c(O)c2)cs1
> 100 µM (inactive)	O=C(CN1C(=O)/C(=C/c2ccco2)SC1=S)Nc1cccc(C(=O)O)c1
> 100 µM (inactive)	S=C(NCCC(c1ccccc1)c1ccccc1)Nc1ccc(Cl)cc1Cl
24.4 µM	CCn1c(SCC(=O)c2ccc(O)c(O)c2)nnc1-c1ccccc1OC
> 100 µM (inactive)	S=C(NCCC(c1ccccc1)c1ccccc1)Nc1ccc(Cl)cc1
> 100 µM (inactive)	COc1cccc(-c2cccc(NC(=O)C3CCN(Cc4ccc(CO)o4)CC3)c2)c1
> 100 µM (inactive)	Fc1ccc(NC(=S)NCCC(c2ccccc2)c2ccccc2)cc1Cl
> 100 µM (inactive)	CC(C)c1ccccc1NC(=S)NCCC(c1ccccc1)c1ccccc1
> 100 µM (inactive)	Cc1nn(C)c(Cl)c1CN1CCC(C(=O)Nc2cccc(-c3cccc(F)c3)c2)CC1
> 100 µM (inactive)	C=CCn1cc(CN2CCC(C(=O)Nc3cccc(-c4cccc(Cl)c4)c3)CC2)c(C)n1
> 100 µM (inactive)	NS(=O)(=O)c1ccc(NC(=S)NCCC(c2ccccc2)c2ccccc2)cc1
> 100 µM (inactive)	Cc1c(Cl)cccc1NC(=S)NCCC(c1ccccc1)c1ccccc1
> 100 µM (inactive)	CC(C)n1cc(CN2CCC(C(=O)Nc3cccc(-c4cccc(Cl)c4)c3)CC2)cn1
> 100 µM (inactive)	CCc1ccccc1Nc1nc(-c2ccc(O)c(O)c2)cs1
> 100 µM (inactive)	S=C(NCCC(c1ccccc1)c1ccccc1)Nc1ccccc1
